Key:
[1] = target: Inosine-5'-monophosphate dehydrogenase 2 (Homo sapiens, UniProt P12268); test: Inhibition of human recombinant IMPDH2 by spectrophotometry
[2] = target: Poly [ADP-ribose] polymerase 1 (Homo sapiens, UniProt P09874); test: Inhibition of PARP1 (unknown origin) after 1 hr by spectrophotometry
[3] = target: T1, Poly [ADP-ribose] polymerase tankyrase-2 (Homo sapiens, UniProt Q9H2K2); test: Inhibition of human tankyrase2 after 2 hrs by spectrophotometry
T1 sequence (Q9H2K2 whole entry): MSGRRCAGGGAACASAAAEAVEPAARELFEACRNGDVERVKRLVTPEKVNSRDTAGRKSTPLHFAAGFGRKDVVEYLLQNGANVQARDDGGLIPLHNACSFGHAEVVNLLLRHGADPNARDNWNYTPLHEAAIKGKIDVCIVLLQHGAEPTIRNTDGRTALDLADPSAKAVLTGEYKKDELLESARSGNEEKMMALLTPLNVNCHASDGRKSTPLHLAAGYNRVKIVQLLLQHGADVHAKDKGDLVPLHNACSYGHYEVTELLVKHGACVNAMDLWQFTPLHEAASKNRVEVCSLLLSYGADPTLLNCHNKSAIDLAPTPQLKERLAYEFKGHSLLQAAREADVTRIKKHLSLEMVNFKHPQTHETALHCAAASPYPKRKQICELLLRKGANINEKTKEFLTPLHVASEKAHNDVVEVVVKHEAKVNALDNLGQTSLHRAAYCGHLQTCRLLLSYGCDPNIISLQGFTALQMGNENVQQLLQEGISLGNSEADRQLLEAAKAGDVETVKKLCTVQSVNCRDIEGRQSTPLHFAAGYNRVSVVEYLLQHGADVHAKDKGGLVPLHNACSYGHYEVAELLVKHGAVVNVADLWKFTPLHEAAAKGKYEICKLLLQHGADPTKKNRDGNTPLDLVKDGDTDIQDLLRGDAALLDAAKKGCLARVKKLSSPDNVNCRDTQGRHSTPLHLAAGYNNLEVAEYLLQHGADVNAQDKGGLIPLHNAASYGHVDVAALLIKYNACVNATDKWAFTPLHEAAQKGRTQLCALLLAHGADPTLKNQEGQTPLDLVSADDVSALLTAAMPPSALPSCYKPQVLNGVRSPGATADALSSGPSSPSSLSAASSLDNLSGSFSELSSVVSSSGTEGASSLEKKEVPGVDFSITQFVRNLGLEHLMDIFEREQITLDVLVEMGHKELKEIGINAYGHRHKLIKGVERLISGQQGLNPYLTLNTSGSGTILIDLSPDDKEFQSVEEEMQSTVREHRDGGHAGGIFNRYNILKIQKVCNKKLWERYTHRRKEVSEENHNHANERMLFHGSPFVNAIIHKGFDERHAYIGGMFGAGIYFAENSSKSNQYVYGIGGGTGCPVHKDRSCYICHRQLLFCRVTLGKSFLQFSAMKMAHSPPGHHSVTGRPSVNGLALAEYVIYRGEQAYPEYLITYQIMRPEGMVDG

[4] = target: T2, Poly [ADP-ribose] polymerase tankyrase-1 (Homo sapiens, UniProt O95271); test: Inhibition of human tankyrase1 after 30 mins by spectrophotometry
T2 sequence (O95271 whole entry): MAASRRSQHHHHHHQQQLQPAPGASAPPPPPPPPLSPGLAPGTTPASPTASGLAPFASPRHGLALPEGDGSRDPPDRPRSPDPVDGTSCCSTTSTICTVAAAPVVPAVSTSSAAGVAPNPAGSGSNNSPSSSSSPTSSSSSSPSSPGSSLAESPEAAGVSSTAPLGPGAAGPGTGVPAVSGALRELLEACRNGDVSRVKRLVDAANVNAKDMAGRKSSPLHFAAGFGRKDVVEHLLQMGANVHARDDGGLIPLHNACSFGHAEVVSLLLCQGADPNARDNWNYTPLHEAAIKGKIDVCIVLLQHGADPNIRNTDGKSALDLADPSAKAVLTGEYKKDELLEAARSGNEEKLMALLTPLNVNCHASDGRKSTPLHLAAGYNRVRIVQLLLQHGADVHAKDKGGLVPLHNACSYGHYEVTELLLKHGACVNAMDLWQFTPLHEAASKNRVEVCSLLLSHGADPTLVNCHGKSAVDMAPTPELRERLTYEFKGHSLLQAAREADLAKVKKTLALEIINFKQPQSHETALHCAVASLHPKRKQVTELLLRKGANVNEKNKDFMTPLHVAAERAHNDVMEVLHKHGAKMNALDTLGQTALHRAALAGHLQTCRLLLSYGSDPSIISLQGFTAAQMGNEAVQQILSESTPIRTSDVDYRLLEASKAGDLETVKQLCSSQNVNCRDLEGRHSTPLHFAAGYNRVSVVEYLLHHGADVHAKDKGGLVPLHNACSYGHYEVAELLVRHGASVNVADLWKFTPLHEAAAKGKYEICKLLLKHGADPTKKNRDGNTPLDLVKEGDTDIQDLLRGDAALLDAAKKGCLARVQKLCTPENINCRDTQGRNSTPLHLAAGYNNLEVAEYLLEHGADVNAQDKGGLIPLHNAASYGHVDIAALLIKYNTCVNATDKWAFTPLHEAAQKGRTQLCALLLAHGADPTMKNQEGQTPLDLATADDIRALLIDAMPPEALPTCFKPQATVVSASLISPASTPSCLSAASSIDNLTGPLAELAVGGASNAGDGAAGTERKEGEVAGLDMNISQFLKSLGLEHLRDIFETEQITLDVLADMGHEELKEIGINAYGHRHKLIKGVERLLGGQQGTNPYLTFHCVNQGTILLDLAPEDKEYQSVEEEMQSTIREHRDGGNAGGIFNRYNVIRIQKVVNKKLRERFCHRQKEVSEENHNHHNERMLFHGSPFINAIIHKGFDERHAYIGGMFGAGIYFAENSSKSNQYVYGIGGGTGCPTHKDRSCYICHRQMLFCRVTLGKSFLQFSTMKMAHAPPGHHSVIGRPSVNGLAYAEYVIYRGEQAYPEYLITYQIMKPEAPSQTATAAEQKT

Homo sapiens [5] = species: Homo sapiens; test: Selectivity ratio of IC50 for PARP1 (unknown origin) to IC50 for human tankyrase2
Homo sapiens [6] = species: Homo sapiens; test: Selectivity ratio of IC50 for PARP1 (unknown origin) to IC50 for human tankyrase1
[7] = target: T3, Poly [ADP-ribose] polymerase tankyrase-2 (Homo sapiens) (UniProt Q9H2K2); test: Inhibition of human tankyrase2 at 10 nM after 2 hrs by spectrophotometry
T3 sequence (whole entry): T1 sequence (Q9H2K2 whole entry)

Sequence of Poly [ADP-ribose] polymerase 1 (P09874 whole entry): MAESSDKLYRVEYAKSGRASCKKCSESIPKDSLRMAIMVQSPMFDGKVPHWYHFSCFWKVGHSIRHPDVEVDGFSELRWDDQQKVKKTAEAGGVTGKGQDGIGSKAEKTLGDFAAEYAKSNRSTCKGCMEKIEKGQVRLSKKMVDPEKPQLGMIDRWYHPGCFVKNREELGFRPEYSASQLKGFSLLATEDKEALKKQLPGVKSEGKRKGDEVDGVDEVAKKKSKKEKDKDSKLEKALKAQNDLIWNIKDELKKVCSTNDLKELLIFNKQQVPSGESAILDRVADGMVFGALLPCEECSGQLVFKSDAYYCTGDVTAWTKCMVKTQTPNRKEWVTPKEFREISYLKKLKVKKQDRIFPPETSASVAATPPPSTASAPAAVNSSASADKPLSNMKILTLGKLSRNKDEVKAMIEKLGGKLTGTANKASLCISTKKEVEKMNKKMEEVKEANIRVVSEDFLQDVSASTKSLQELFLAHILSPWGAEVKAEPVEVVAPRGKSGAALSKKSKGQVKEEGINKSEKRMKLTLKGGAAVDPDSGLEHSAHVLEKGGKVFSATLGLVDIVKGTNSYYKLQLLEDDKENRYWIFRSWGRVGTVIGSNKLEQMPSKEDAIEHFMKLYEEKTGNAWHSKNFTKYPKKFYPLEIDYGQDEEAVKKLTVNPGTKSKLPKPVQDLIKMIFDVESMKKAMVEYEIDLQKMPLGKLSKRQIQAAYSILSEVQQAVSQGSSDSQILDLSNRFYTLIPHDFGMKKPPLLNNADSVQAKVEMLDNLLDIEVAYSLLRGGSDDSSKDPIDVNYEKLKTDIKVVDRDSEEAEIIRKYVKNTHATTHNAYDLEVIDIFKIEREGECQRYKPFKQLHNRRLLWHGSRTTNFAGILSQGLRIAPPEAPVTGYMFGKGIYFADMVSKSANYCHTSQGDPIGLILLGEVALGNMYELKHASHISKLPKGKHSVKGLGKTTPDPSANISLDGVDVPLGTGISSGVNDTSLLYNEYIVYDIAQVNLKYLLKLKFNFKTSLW

Structure (SMILES): Cc1cccc2c(=O)[nH]c(-c3ccc(O)cc3)nc12
- IC50 [1]: > 10 µM
- IC50 [2]: 1200 nM
- IC50 [3]: 3 nM
- IC50 [4]: 52 nM

Structure (SMILES): Cc1cccc2c(=O)[nH]c(-c3ccccc3)nc12
- IC50 [1]: > 10 µM
- IC50 [2]: 795 nM
- IC50 [3]: 41 nM
- IC50 [4]: 42 nM

Structure (SMILES): COc1ccc(-c2nc3c(C)cccc3c(=O)[nH]2)cc1
- IC50 [1]: > 10 µM
- IC50 [2]: 891 nM
- IC50 [3]: 12 nM
- IC50 [4]: 37 nM

Structure (SMILES): Cc1cccc2c(O)nc(-c3ccc([N+](=O)[O-])cc3)nc12
- IC50 [1]: > 10 µM
- IC50 [3]: 30 nM
- IC50 [4]: 32 nM

Structure (SMILES): Cc1cccc2c(=O)[nH]c(-c3ccc(Br)cc3)nc12
- Ratio IC50 (Homo sapiens [5]): > 830
- Ratio IC50 (Homo sapiens [6]): > 150
- IC50 [1]: > 10 µM
- IC50 [2]: > 5000 nM
- IC50 [3]: 5.5 nM
- IC50 [4]: 32 nM

Structure (SMILES): Cc1cccc2c(=O)[nH]c(-c3ccc(Cl)cc3)nc12
- inhibition [7]: 49%
- IC50 [1]: > 10 µM
- IC50 [2]: > 5000 nM
- IC50 [3]: 33 nM
- IC50 [4]: 36 nM

Structure (SMILES): Cc1ccc(-c2nc3c(C)cccc3c(=O)[nH]2)cc1
- IC50 [1]: > 10 µM
- IC50 [2]: 685 nM
- IC50 [3]: 6.7 nM
- IC50 [4]: 35 nM

Structure (SMILES): O=c1[nH]c(-c2ccc(Cl)cc2)nc2c(O)cccc12
- inhibition [7]: 32%

Structure (SMILES): Cc1cccc2c(O)nc(-c3ccc(C(F)(F)F)cc3)nc12
- Ratio IC50 (Homo sapiens [5]): > 500
- Ratio IC50 (Homo sapiens [6]): > 100
- IC50 [1]: > 10 µM
- IC50 [2]: > 5000 nM
- IC50 [3]: 10 nM
- IC50 [4]: 48 nM

Structure (SMILES): COc1cccc2c(=O)[nH]c(-c3ccc(Cl)cc3)nc12
- inhibition [7]: 25%

Structure (SMILES): Cc1cccc2c(O)nc(-c3ccc(O)cc3)nc12
- Ratio IC50 (Homo sapiens [5]): 240
- Ratio IC50 (Homo sapiens [6]): 23

Structure (SMILES): O=c1[nH]c(-c2ccc([N+](=O)[O-])cc2)nc2ccccc12
- inhibition [7]: 2%

Structure (SMILES): Cc1cccc2c(=O)[nH]c(-c3ccc(CNC(=O)OCc4ccccc4)cc3)nc12
- Ratio IC50 (Homo sapiens [5]): > 110
- Ratio IC50 (Homo sapiens [6]): > 70
- IC50 [1]: > 10 µM
- IC50 [2]: > 5000 nM
- IC50 [3]: 44 nM
- IC50 [4]: 73 nM

Structure (SMILES): Cc1cccc2c(=O)[nH]c(-c3ccc(F)cc3)nc12
- IC50 [1]: > 10 µM
- IC50 [2]: > 5000 nM
- IC50 [3]: 40 nM
- IC50 [4]: 44 nM

Structure (SMILES): Cc1cccc2c(O)nc(-c3ccc(N)cc3)nc12
- Ratio IC50 (Homo sapiens [5]): 170
- Ratio IC50 (Homo sapiens [6]): 14
- IC50 [1]: > 10 µM
- IC50 [2]: 504 nM
- IC50 [3]: 3.3 nM
- IC50 [4]: 35 nM

Structure (SMILES): Oc1nc(-c2ccc(C(F)(F)F)cc2)nc2c1CSCC2
- IC50 [1]: > 10 µM
